Reference: US11980681B2, “Material for demineralizing dentin collagen fibril, preparation method and application thereof” (THE FOURTH MILITARY MEDICAL UNIVERSITY OF CHINESE PEOPLE'S …, priority 2019, dated 2024)

How the values were obtained:
[1] = test system: human dental pulp stem cells (hDPSCs); experiment: Cytotoxicity test: mitochondrial dehydrogenase activity and intracellular DNA content; assay type: cell-based; conditions: hDPSCs exposed to 32% phosphoric acid, 0.1M EDTA or 25 mg/ml GCE; PBS control
Source text: (§1) FIG. 5A detects the mitochondrial dehydrogenase activity (Mito.) of human dental pulp stem cells (hDPSCs) that had been exposed to different dentin demineralizing agents.
FIG. 5B detects intracellular DNA content of human dental pulp stem cells that had been exposed to different dentin demineralizing agents.
as §1, with “agents. FIG. 5B detects intracellular DNA content of human dental pulp stem cells that had been exposed to different dentin demineralizing agents.” for “agents.”

[2] = Rate of chelating Ca2+ from mineralized dentin, inductively coupled plasma-atomic emission spectrometry; conditions: 0.1M EDTA vs EDTA cross-linked glycol chitosan at 50, 25 and 10 mg/ml
[3] = Degree of degradation of dentin collagen in dentin mixed layers; conditions: ranking among 32% phosphoric acid, EDTA and GCE
Method: FIG. 4B compares degree of degradation of dentin collagen in each group of the dentin mixed layers.
In this experiment, the inhibitory effect of GCE on soluble MMP-9 was evaluated using purified recombinant human MMP-9 (rhMMP-9) and a generic MMP assay kit (Sensolyte, AnaSpec Inc., Fremont, CA, USA). The MMP assay kit contains an intact thiopeptolide that is cleaved by specific MMPs to release a sulfhydryl group that produces colored 2-nitro-5-thiobenzoic acid with Ellman's reagent. A series of EDTA and GCE solutions (50 mg/mL, 25 mg/mL, 10 mg/mL, 5 mg/mL, 1 mg/mL) were used as test agents and 32% H3PO4 was used for comparison. […] Readings were taken after 60 min of incubation at 37° C. Absorbance was measured at 412 nm using a 96-well plate reader (VICTOR Nivo™, PerkinElmer). Background absorbance was determined from the “substrate control” wells and subtracted from the readings of the other wells containing the thiopeptolide substrate. The potency of rhMMP-9 inhibition by GM6001, the kit-included MMP inhibitor, and the […] concentrations of EDTA or GCE were expressed as percentages of the adjusted absorbance of the “positive control”. Inhibition of MMP (%) was calculated as 1−([A]test compound group−[A]test compound control)/([A]positive control−[A]substrate control), where [A] represents the absorbance values of the wells. […]

[4] = Transmission electron microscopy of mineralized dentin treated with demineralizing agents; conditions: 0.1M EDTA for 60 seconds or 25 mg/ml glycol chitosan-EDTA for 30 seconds
Method: For wet bonding, the conditioned specimen was kept moist by removing excess water from the dentin surface with lint-free tissues prior to bonding. For dry bonding, the conditioned dentin was air-dried with […] moisture-free air for 5 sec. The dentin bond strength was measured by the following methods. After treatment with various demineralizing agents and rinsing with deionized water, each tooth segment was bonded with Adper Single Bond 2 (3M ESPE; St Paul, MN, USA). After bonding, a 4-mm thick of resin composite (Z250, 3M ESPE) was placed over the adhesive-coated dentin surface using incremental light-curing. The bonded teeth with composite build-ups were stored in water for 24 hours at 37° C. Each specimen was subsequently sectioned to 0.9 mm×0.9 mm×7 mm long sticks, each with the resin-dentin interface in the middle of the stick. Each stick was attached with cyanoacrylate glue (Zapit; Dental Ventures of America, Corona, CA, USA) to a testing jig and stressed to failure under tension in a universal testing machine (Vitrodyne V1000; Liveco Inc., Burlington, VT, USA) at a cross-head speed of 1 mm/min. The tensile load at failure was recorded and divided by the measured cross-sectioned area of each beam to yield the tensile bond strength. The mean bond strength value derived from the 4 beams of each tooth was used to represent the tensile bond strength of that particular tooth. […]

degradation rate of collagen [3] | Compound | cell viability [1] | demineralization effect (rate of chelating Ca2+) [2] | extent of dentin demineralization in TEM image [4]
followed by EDTA | O=C(O)CN(CCN(CC(=O)O)CC(=O)O)CC(=O)O [EDTA, ethylenediaminetetraacetic acid] | followed by the EDTA group | strongest demineralization effect | complete demineralization in a part of area and partial demineralization in some areas
highest | O=P(O)(O)O [phosphoric acid] | lowest | – | –
